In patent US6184252A, “2-amino-1,3-alkanediol compositions for inducing/stimulating hair growth and/or retarding hair loss” (priority 1996, dated 2001):
Like-named read-outs stand apart in the source and are kept apart here.

Key:
Format in all cases: cell-based
[1] = test system: HaCat cells (cultured keratinocytes); test: Cell viability (mitochondrial respiration, XTT kit); conditions: for activation at 0.05 µM: Homo sapiens, HaCaT, read-out: increase in the number of cells with respect to the control (cell viability)
Method: Measurement of the Effect of 2-amino-1,3-octadecanediol and Derivatives Thereof on Cell Viability
HaCat cells were cultured as in Example 1.
(§1) These were then inoculated at a density of 20,000 cells per well in the 24 wells of plates of the multiwell type (Costar, France).
(§2) 24 hours after inoculation, the cells were contacted with the various test compounds in a KBM medium (marketed by Clonetics) containing insulin at 5 μg/ml and hydrocortisone at 0.5 μg/ml.
(§3) Cell viability was evaluated 48 hours later by measuring the mitochondrial respiration. This was carried out using an XTT kit, marketed by Boehringer, according to the supplier's instructions.
The compounds A, B and C of the above Example 1 were tested at a concentration of 50 nM, as well as a derivative based on sphingenine: N-palmitoylsphingenine marketeed by Sigma (C16H).

[2] = test system: HaCat cells (keratinocytes); test: Effect on the cell cycle (BrdU incorporation, entry into S phase); conditions: 50 nM; for activation at 0.05 µM: Homo sapiens, HaCaT, read-out: increase in the number of cells which have entered into the S phase with respect to the control
Method: Measurement of the Effect of 2-amino-1,3-octadecanediol and Derivatives Thereof on the Cell Cycle
HaCat cells were cultured as above.
as §1
24 hours after inoculation, the cells were contacted with the various test compounds in a KBM medium (marketed by Clonetics) containing insulin at 5 μg/ml and hydrocortisone at 0.5 μg/ml and 5-bromo-2'-deoxyuridine (BrdU) at 1 μM.
[…] This was carried out using a BrdU fast kit, marketed by Boehringer, according to the supplier's instructions.
The compounds A, B and C of the above example were tested at a concentration of 50 nM.
The results, expressed as percentage, represent the increase in the number of cells which have entered into the S phase with respect to the control, namely, with respect to a culture produced under the same conditions in the absence of alkanediol compounds.

hair follicle = test: Survival of the hair follicle in vitro; conditions: Homo sapiens, read-out: percentage of surviving follicles
Method: Viable in vitro hair follicles were prepared according to the technique described in FR-95/08,465, filed Jul. 12, 1995 and assigned to the assignee hereof. From a scalp biopsy, a rather fine strip of scalp was isolated using a scalpel. The adipose tissue surrounding the follicles was removed with microforceps while avoiding damage to the hair bulb. The follicle was cut and removed with a scalpel under a microscope in order to separate it from its epidermal and dermal surroundings. The fragment obtained was maintained in culture in Williams E medium, at 37° C., in a humid atmosphere in the presence of CO2. The survival of the follicles was evaluated each day by counting the living follicles, according to their morphological appearance. The results are reported as percentage of surviving follicles per day. The experiment was carried out employing the following compounds at a concentration of 50 nM: in comparison with the culture medium without alkanediol (A).

[3] = test system: HaCat cells (cultured keratinocytes); test: Proliferative influence on cultured keratinocytes (cell counting with Coulter Counter); conditions: Homo sapiens, 120 h, 5 days, read-out: increase in the number of cells with respect to the control; for activation at 0.0005 µM: 0.5 nM; for activation at 0.005 µM: 5 nM; for activation at 0.05 µM: 50 nM; for activation at 0.5 µM: 500 nM
Method: Measurement of the Proliferative Influence of 2-amino-1,3-octadecanediol and Derivatives Thereof on Cultured Keratinocytes
HaCat cells (Boukamp and coworkers, J. Cell Biol., vol. 106, March 1988, 761-771) were cultured in DMEM medium (marketed by Gibco) containing amino acids (mixture of nonessential amino acids) at a concentration of 0.1 mM, penicillin and streptomycin at respective concentrations of 50 International Units per […] and of 50 μg/ml, glutamine at a concentration of 2 mM, sodium pyruvate at a concentration of 1 mM and 10% fetal calf serum. These cells were inoculated at a density of 10,000 cells per well in the 24 wells of plates of the multiwell type (Costar, France). 24 hours after inoculation, the cells were contacted with the various test compounds in a KBM medium (marketed by Clonetics) containing 0.15 mM of calcium ion, insulin at 5 μg/ml, hydrocortisone at 0.5 μg/ml and lipid-free bovine serum albumin at 1 μg/ml.
Cellular counting was carried out 5 days after the addition of the various ceramides using a cell counter of the Coulter Counter type.
The various compounds were tested at 0.5 nM, 5 nM, 50 nM and 500 nM.
The results, expressed as percentage, represent the increase in the number of cells with respect to the control, namely, with respect to a culture produced under the same conditions in the absence of sphinganine.

HaCat cells [4] = test: Cell viability in the presence of doxorubicin (XTT kit); conditions: for increase in the number of cells with respect to the control (A): read at 48 hours
Method: Effect of 2-amino-1,3-octadecanediol and Derivatives Thereof on Cell Viability in the Presence of Doxorubicin
HaCat cells were cultured as in Example 2.
as §2
The cells were cultured in the presence of the 2-amino-1,3-octadecanediol to be tested until evaluation of cell viability.
Doxorubicin at a concentration of 1 μg/ml was added to the culture medium for 2 hours at the beginning of the experiment.
as §3
(§4) The experiment was carried out with the following compounds at a concentration of 50 nM:
in comparison with the culture medium without alkanediol and without doxorubicin (A) and with a medium containing only doxorubicin (B).
The results, expressed as percentage, represent the increase in the number of cells with respect to the control (A), namely, with respect to a culture produced under the same conditions in the absence of alkanediol compounds and of doxorubicin.

HaCat cells [5] = test system: HaCat cells
Method: Effect of 2-amino-1,3-octadecanediol and Derivatives Thereof on Cell Viability in the Presence of a Compound Based on Sphingenine, N-acetylsphingenine
The cells were cultured as in Example 5. N-Acetylsphingenine was at a concentration of 10 μM.
as §4
in comparison with the culture medium without alkanediol and without N-acetylsphingenine (A) and with a medium containing only N-acetylsphingenine (B).
The results, expressed as percentage, represent the number of cells with respect to the control (A), namely, with respect to a culture produced under the same conditions in the absence of alkanediol compounds and of N-acetylsphingenine.

[6] = alkanediol 50 nM in presence of doxorubicin 1 μg/ml for 2 hours

Structure (SMILES) | viability of the cultured keratinocytes (in words) ([1]; 50 nM, 48 hours) | number of keratinocytes which have entered into the S phase (in words) [2] | activation at 0.05 µM ([2]; 72 hours) [%] | activation at 0.05 µM ([2]; 96 hours) [%] | activation at 0.0005 µM [3] [%] | activation at 0.005 µM [3] [%] | activation at 0.05 µM [3] [%] | activation at 0.5 µM [3] [%] | increase in the number of cells with respect to the control (A) (HaCat cells [4]; [6]) | further results
CCCCCCCCCCCCC/C=C/[C@@H](O)[C@H](CO)NC(=O)CCCCCCCCCCCCCCC [Compound C16H, N-palmitoylsphingenine, reference compound] | elicited a cytotoxic effect on the cultured cells | – | – | – | – | – | – | – | – | increase in the number of cells with respect to the control (cell viability) ([1]; 50 nM, 48 hours): -25%
CCCCCCCCCCCCCCCC(O)C(N)CO (stereo not drawn) [A, 2-amino-1,3-octadecanediol] | increased the viability of the cultured keratinocytes | increase the number of keratinocytes which have entered into the S phase | 36 | 41 | 7 | 15 | 17 | 30 | +25% | viability at 0.05 µM (hair follicle; 0 h, 50 nM, day 0): 100%; viability at 0.05 µM (hair follicle; 24 h, 50 nM, day 1): 100%; viability at 0.05 µM (hair follicle; 120 h, 50 nM, day 5): 90%; viability at 0.05 µM (hair follicle; 240 h, 50 nM, day 10): 20%; viability at 0.05 µM (hair follicle; 360 h, 50 nM, day 15): 0%; viability at 0.05 µM (hair follicle; 480 h, 50 nM, day 20): 0%; viability at 0.05 µM (hair follicle; 600 h, 50 nM, day 25): 0%; activation at 0.05 µM ([1]; 50 nM, 48 hours): 17%
CCCCCCCCCCCCCCCC(O)C(CO)NC(C)=O (stereo not drawn) [E, 2-acetylamino-1,3-octadecanediol] | – | – | – | – | 17 | 34 | 29 | 35 | – | –
CCCCCCCC/C=C\CCCCCCCC(=O)NC(CO)C(O)CCCCCCCCCCCCCCC (stereo not drawn) [B, 2-oleoylamino-1,3-octadecanediol] | increased the viability of the cultured keratinocytes | increase the number of keratinocytes which have entered into the S phase | 43 | 51 | 17 | 24 | 23 | 14 | +28% | viability at 0.05 µM (hair follicle; 0 h): 100%; viability at 0.05 µM (hair follicle; 24 h): 100%; viability at 0.05 µM (hair follicle; 120 h): 100%; viability at 0.05 µM (hair follicle; 240 h): 78%; viability at 0.05 µM (hair follicle; 360 h): 33%; viability at 0.05 µM (hair follicle; 480 h): 0%; viability at 0.05 µM (hair follicle; 600 h): 0%; activation at 0.05 µM ([1]; 48 h): 23%
CCCCCCCCCCCCC/C=C/[C@@H](O)[C@H](CO)NC(C)=O [N-Acetylsphingenine] | – | – | – | – | – | – | – | – | – | cell viability in the presence of N-acetylsphingenine (in words) (HaCat cells [5]; N-acetylsphingenine 10 μM, alkanediol 50 nM): caused a decrease in cell viability; number of cells with respect to the control (A) (HaCat cells [5]; human, hacat cells, 48 h, 10 µM): 57%
CCCCCCCCCCCCCCCC(O)C(CO)NC(=O)C(O)CCCCCCCCCCCCCC (stereo not drawn) [C, 2-N-(2-hydroxyhexadecanoyl)amino-1,3-octadecanediol] | increased the viability of the cultured keratinocytes | increase the number of keratinocytes which have entered into the S phase | 17 | 43 | 26 | 36 | 42 | 22 | +23% | viability at 0.05 µM (hair follicle; 0 h, 50 nM, day 0): 100%; viability at 0.05 µM (hair follicle; 24 h, 50 nM, day 1): 100%; viability at 0.05 µM (hair follicle; 120 h, 50 nM, day 5): 100%; viability at 0.05 µM (hair follicle; 240 h, 50 nM, day 10): 50%; viability at 0.05 µM (hair follicle; 360 h, 50 nM, day 15): 42%; viability at 0.05 µM (hair follicle; 480 h, 50 nM, day 20): 25%; viability at 0.05 µM (hair follicle; 600 h, 50 nM, day 25): 0%; activation at 0.05 µM ([1]; 50 nM, 48 hours): 20%
CCCCCCCCCCCCCCCCCCCCCCCC(=O)NC(CO)C(O)CCCCCCCCCCCCCCC (stereo not drawn) [D, 2-tetracosanoylamino-1,3-octadecanediol] | – | – | – | – | 22 | 27 | 33 | 42 | – | –
CCCCCCCCCCCCCCCC(O)C(CO)NC(=O)CCCCCCC (stereo not drawn) [F, 2-octanoylamino-1,3-octadecanediol] | – | – | – | – | 15 | 18 | 31 | 27 | – | –
COc1cccc2c1C(=O)c1c(O)c3c(c(O)c1C2=O)C[C@@](O)(C(=O)CO)C[C@@H]3O[C@H]1C[C@H](N)[C@H](O)[C@H](C)O1 [Doxorubicin, reference compound] | – | – | – | – | – | – | – | – | – | cell viability in the presence of doxorubicin (in words) (HaCat cells [4]; doxorubicin 1 μg/ml for 2 hours, alkanediol 50 nM): caused a decrease in cell viability; increase in the number of cells with respect to the control (A) (HaCat cells [4]; only doxorubicin, 1 μg/ml for 2 hours): -20%
